Laboratory results published in paper PMC12481029, “Design, synthesis, antiproliferative assessments, and computational studies of new quinolin-2(1H)-ones as dual EGFR/HER-2 inhibitors” (Frontiers in Chemistry, 2025).
Where “and” joins values, the source holds several entries; their conditions need not be identical. Equal entries are not always repeated.

Legend:
[1] = test system: colon (HT-29) cancer cell line; test: Antiproliferative assay, HT-29; assay type: cell-based; conditions: Homo sapiens, read-out: Antiproliferative activity IC50 ± SEM, HT-29
[2] = test system: lung (A-549) cancer cell line; test: Antiproliferative assay, A-549; assay type: cell-based; conditions: Homo sapiens, A549; read-out: Antiproliferative activity IC50 ± SEM, A-549
Description: (§1) The MTT assay ([Al-Wahaibi et al., 2022]; [Mahmoud et al., 2023]) was employed to assess the antiproliferative effects of compounds 3a-h and 5a-g on four human cancer cell lines: colon (HT-29) cancer, pancreatic (Panc-1) cancer, lung (A-549) cancer, and breast (MCF-7) cancer cell lines. Erlotinib was applied as a reference. Table 1 presents the median inhibitory concentration (IC50) and average IC50 (GI50) values for each compound evaluated on the four cancer cell lines.
(§2) Compounds 3a-h and 5a-g were tested for their antiproliferative activities on four human cancer cell lines: colon (HT-29), pancreatic (Panc-1), lung (A-549), and breast (MCF-7) using the MTT assay ([Al-Wahaibi et al., 2022]; [Mahmoud et al., 2023]). Erlotinib was applied as a reference.
(§3) To explore the antiproliferative potential of compounds propidium iodide fluorescence assay was performed using different cell lines such as Panc-1 (pancreas cancer cell line), MCF-7 (breast cancer cell line), HT-29 (colon cancer cell line) and A-549 (epithelial cancer cell line), respectively. To calculate the total nuclear DNA, a fluorescent dye (propidium iodide, PI) is used which can attach to the DNA, thus offering a quick and precise technique. PI cannot pass through the cell membrane and its signal intensity can be considered as directly proportional to quantity of cellular DNA. Cells whose cell membranes are damaged or have changed permeability are counted as dead ones. The assay was performed by seeding the cells of different cell lines at a density of 3000-7500 cells/well (in 200μl medium) in culture plates followed by incubation for 24h at 37 °C in humidified 5%CO2/95% air atmospheric conditions. The medium was removed; the compounds were added to the plates at 10 μM concentrations (in 0.1% DMSO) in triplicates, followed by incubation for 48h. DMSO (0.1%) was used as control. After incubation, medium was removed followed by the addition of PI (25 μl, 50μg/mL in water/medium) to each well of the plates. At -80 °C, the plates were allowed to freeze for 24 h, followed by thawing at 25 °C. A fluorometer (Polar-Star BMG Tech) was used to record the readings at excitation and emission wavelengths of 530 and 620 nm for each well. The percentage cytotoxicity of compounds was calculated using the following formula: […]

[3] = test system: breast (MCF-7) cancer cell line; test: Antiproliferative assay, MCF-7; assay type: cell-based; conditions: Homo sapiens, MCF7; read-out: Antiproliferative activity IC50 ± SEM, MCF-7
Description: as §1, §2, §3

[4] = test system: pancreatic (Panc-1) cancer cell line; test: Antiproliferative assay, Panc-1; assay type: cell-based; conditions: Homo sapiens, read-out: Antiproliferative activity IC50 ± SEM, Panc-1
Description: as §1, §2, §3

[5] = test system: four human cancer cell lines (A-549, MCF-7, Panc-1, HT-29); test: Antiproliferative assay, average over four cancer cell lines; assay type: cell-based; conditions: for GI50: Homo sapiens, average IC50 over the four cancer cell lines; for Potency reduction (fold) compared to 3d (GI50): ratio to 3d GI50 = 41 nM
[6] = Cell viability assay (MTT), normal mammary cells; conditions: human, MCF-10A normal mammary epithelial cells
Procedure: (§4) MTT assay was performed to investigate the effect of the synthesized compounds on mammary epithelial cells (MCF-10A). The cells were propagated in medium consisting of Ham's F-12 medium/ Dulbecco's modified Eagle's medium (DMEM) (1:1) supplemented with 10% foetal calf serum, 2 mM glutamine, insulin (10 μg/mL), hydrocortisone (500 ng/mL) and epidermal growth factor (20 ng/mL). Trypsin ethylenediamine tetra acetic acid (EDTA) was used to passage the cells after every 2-3 days. 96-well flat-bottomed cell culture plates were used to seed the cells at a density of 10^4 cells mL^-1. The medium was aspirated from all the wells of culture plates after 24 h followed by the addition of synthesized compounds (in 200 μL medium to yield a final concentration of 0.1% (v/v) dimethyl sulfoxide) into individual wells of the plates. Four wells were designated to a single compound. The plates were allowed to incubate at 37°C for 96 h. Afterwards, the medium was aspirated and 3-[4,5-dimethylthiazol-2-yl]-2,5-diphenyltetrazolium bromide (MTT) (0.4 mg/mL) in medium was added to each well and subsequently incubated for 3 h. The medium was aspirated and 150 μL dimethyl sulfoxide (DMSO) was added to each well. The plates were vortexed followed by the measurement of absorbance at 540 nm on a microplate reader.

EGFR = EGFR (Homo sapiens, UniProt P00533); test: EGFR inhibitory assay (EGFR-TK test); conditions: for IC50: EGFR inhibition IC50 ± SEM; for Fold less effective than erlotinib, EGFR inhibition: ratio to erlotinib IC50
Procedure: 5ʹ upstream to the EGFR sequence comprised a sequence that encoded (His)6. Sf-9 cells were infected for 72h for protein expression. The pellets of Sf-9 cells were solubilized in a buffer containing sodium vanadate (100 μM), aprotinin (10 μg/mL), triton (1%), HEPES buffer(50mM), ammonium molybdate (10 μM), benzamidine HCl (16 μg/mL), NaCl (10 mM),leupeptin (10 μg/mL) and pepstatin (10 μg/mL) at 0°C for 20 min at pH 7.4, followed by centrifugation for 20 min. To eliminate the nonspecifically bound material, a Ni-NTA super flow packed column was used to pass through and wash the crude extract supernatant first with 10mM and then with 100 mM imidazole. Histidine-linked proteins were first eluted with 250 and then with 500 mM imidazole subsequent to dialysis against NaCl (50 mM), HEPES (20 mM), glycerol (10%) and 1 μg/mL each of aprotinin, leupeptin and pepstatin for 120 min. The purification was performed either at 4 °C or on ice. To record autophosphorylation level, EGFR kinase assay was carried out on the basis of DELFIA/Time-Resolved Fluorometry. […] Each compound (10 μL) was incubated with recombinant enzyme (10 μL, 5 ng for EGFR, 1:80 dilution in 100 mM HEPES) for 10 min at 25 °C, subsequent to the addition of 5X buffer (10 μL, containing 2 mM MnCl2, 100 μM Na3VO4, 20 mM HEPES and 1 mM DTT) and ATP-MgCl2 (20 μL, containing 0.1 mM ATP and 50 mM MgCl2) and incubation for 1h. The negative and positive controls were included in each plate by the incubation of enzyme either with or without ATP-MgCl2. The liquid was removed after incubation and the plates were washed thrice using a wash buffer. The Europium-tagged antiphosphotyrosine antibody (75 μL, 400 ng) was added to each well followed by incubation of 1h and then washing of the plates using buffer. […] The autophosphorylation percentage inhibition by compounds was calculated using the following equation:
The majority of signals detected by antiphosphotyrosine antibody were from EGFR because the enzyme preparation contained low impurities.

HER-2 = HER-2 (Homo sapiens, UniProt P04626); test: HER-2 inhibitory assay (ADP-Glo kinase assay)
Procedure: The ADP-Glo™ Kinase Assay was used for kinase activity detection, related kinases information: HER-2 (ab60866, Abcam), with a concentration of 100 ng/mL. Target compounds were dissolved in DMSO to obtain drug solutions with different concentrations, and the compound concentrations in the final reaction system (100 μL) were 1 nM, 20 nM, 40 nM, 80 nM, and 100 nM, respectively. 10μL of the solution containing compounds was transferred to a 96-well plate, then added 40 μL of 1 × kinase buffer (50 mM HEPES, pH 7.5) to each well, and mixed the mixture in the 96-well plate on a shaker for 10 min. Next, added 25 μL of ADP-Glo™ reagent to the above wells, mixed and incubated for another 40 min. Distributed 10 μL kinase detection reagent to the reaction and incubated for 30 min. Finally, the full-wavelength microplate reader was used to record the OD value.

in vitro = conditions: human
Procedure: as §4

Bax = Bax level assay; conditions: MCF-7 cells
Procedure: Bring all reagents, except the human Bax-α Standard, to room temperature for at least 30 minutes prior to opening. The human Bax-α Standard solution should not be left at room temperature for more than 10 minutes. All standards, controls and samples should be run in duplicate. Refer to the Assay Layout Sheet to determine the number of wells to be used and put any remaining wells with the desiccant back into the pouch and seal the ziploc. Store unused wells at 4 °C. Pipet 100 μL of Assay Buffer into the S0 (0 pg/mL standard) wells. Pipet 100 μL of Standards #1 through #6 into the appropriate wells. Pipet 100 μL of the Samples into the appropriate wells. Tap the plate gently to mix the contents. Seal the plate and incubate at room temperature on a plate shaker for 1 hour at ~500 rpm. Empty the contents of the wells and wash by adding 400 μL of wash solution to every well. Repeat the wash 4 more times for a total of 5 washes. After the final wash, empty or aspirate the wells and firmly tap the plate on a lint free paper towel to remove any remaining wash buffer. Pipet 100 μL of yellow Antibody into each well, except the Blank. Seal the plate and incubate at room temperature on a plate shaker for 1 hour at ~500 rpm. Empty the contents of the wells and wash by adding 400 μL of wash solution to every well. Repeat the wash 4 more times for a total of 5 washes. After the final wash, empty or aspirate the wells and firmly tap the plate on a lint free paper towel to remove any remaining wash buffer. Add 100 μL of blue Conjugate to each well, except the Blank. Seal the plate and incubate at room temperature on a plate shaker for 30 minutes at ~500 rpm. Empty the contents of the wells and wash by adding 400 μL of wash solution to every well. Repeat the wash 4 more times for a total of 5 washes. After the final wash, empty or aspirate the wells and firmly tap the plate on a lint free paper towel to remove any remaining wash buffer. Pipet 100 μL of Substrate Solution into each well. Incubate for 30 minutes at room temperature on a plate shaker at ~500 rpm. Pipet 100 μL Stop Solution to each well. Blank the plate reader against the Blank wells, read the optical density at 450 nm. Calculate the average net Optical Density (OD) bound for each standard and sample by subtracting the average Blank OD from the average OD for each standard and sample. Using linear graph paper, plot the Average Net OD for each standard versus Bax concentration in each standard. Approximate a straight line through the points. The concentration of Bax in the unknowns can be determined by interpolation.

Bcl-2 = Bcl-2 level assay; conditions: MCF-7 cells
Procedure: Mix all reagents thoroughly without foaming before use. Wash the microwells twice with approximately 300 μL Wash Buffer per well with thorough aspiration of microwell contents between washes. Take caution not to scratch the surface of the microwells. After the last wash, empty the wells and tap microwell strips on absorbent pad or paper towel to remove excess Wash Buffer. Use the microwell strips immediately after washing or place upside down on a wet absorbent paper for not longer than 15 minutes. […] Add 100 μL of Sample Diluent in duplicate to all standard wells and to the blank wells. […] Add 100 μL of Sample Diluent, in duplicate, to the blank wells. Add 80 μL of Sample Diluent, in duplicate, to the sample wells. Add 20 μL of each Sample, in duplicate, to the designated wells. Add 50 μL of diluted biotin-conjugate to all wells, including the blank wells. Cover with a plate cover and incubate at room temperature, on a microplate shaker at 100 rpm if available, for 2 hours. Remove plate cover and empty the wells. Wash microwell strips 3 times as described in step 2. Add 100 μL of diluted Streptavidin-HRP to all wells, including the blank wells. Cover with a plate cover and incubate at room temperature, on a microplate shaker at 100 rpm if available, for 1 hour. Remove plate cover and empty the wells. Wash microwell strips 3 times as described in step 2. […] Pipette 100 μl of mixed TMB Substrate Solution to all wells, including the blanks. Incubate the microwell strips at room temperature (18° to 25°C) for about 15 minutes, if available on a rotator set at 100 rpm. Avoid direct exposure to intense light. The point, at which the substrate reaction is stopped, is often determined by the ELISA reader. Many ELISA readers record absorbance only up to 2.0 O.D. Therefore, the color development within individual microwells must be watched by the person running the assay and the substrate reaction stopped before positive wells are no longer properly detectable. Stop the enzyme reaction by quickly pipetting 100 μL of Stop Solution into each well, including the blank wells. It is important that the Stop Solution is spread quickly and uniformly throughout the microwells to completely inactivate the enzyme. Results must be read immediately after the Stop Solution is added or within one hour if the microwell strips are stored at 2 - 8°C in the dark. Read absorbance of each microwell on a spectrophotometer using 450 nm as the primary wavelength.

Cytochrome C = Cytochrome C assay; conditions: MCF-7 cells
Procedure: This lysate was diluted in Standard Diluent Buffer over the range of the assay and measured for cytochrome C content. (Cells are Plated in cells/well in a volume of 100µl complete growth medium + 100 µl of the tested compound + 50 µl of 1X biotin conjugated antibody+ 100 µl of 1X streptavidin-HRP+ 100 µL TMB substrate solution of per well in a 96-well plate for 24 hours before assay).

Caspase-9 = Caspase-9 activation assay; assay type: cell-based, human; conditions: MCF-7 cells
Procedure: To elucidate the apoptotic mechanism of compounds 3d and 5a, whether via the intrinsic or extrinsic pathway, their impact on caspase-8 and caspase-9 was evaluated.
RPMI 1640 with 10% FBS was used to assist the cells grow at 37 °C, and then the cells were treated with the compounds being studied to check the activity of caspase-3, -8, and -9 ([Hisham et al., 2019]). Refer to Supplementary Appendix A.
Cells were obtained from American Type Culture Collection, cells were grown in RPMI 1640 containing 10% fetal bovine serum at 37°C, stimulated with the compounds to be tested for caspase8, and lysed with Cell Extraction Buffer. This lysate was diluted in Standard Diluent Buffer over the range of the assay and measured for human active caspase-8 content. (Cells are Plated in a density of 1.2 – 1.8 × 10,000 cells/well in a volume of 100µl complete growth medium + 100 ul of the tested compound per well in a 96-well plate for 24 hours before the enzyme assay for Tubulin.). The absorbance of each microwell was read on a spectro-photometer at 450 nm. A standard curve is prepared from 7human Caspase-8 standard dilutions and human Caspase-8 concentration determined.

Sequence of EGFR (P00533 669-1210): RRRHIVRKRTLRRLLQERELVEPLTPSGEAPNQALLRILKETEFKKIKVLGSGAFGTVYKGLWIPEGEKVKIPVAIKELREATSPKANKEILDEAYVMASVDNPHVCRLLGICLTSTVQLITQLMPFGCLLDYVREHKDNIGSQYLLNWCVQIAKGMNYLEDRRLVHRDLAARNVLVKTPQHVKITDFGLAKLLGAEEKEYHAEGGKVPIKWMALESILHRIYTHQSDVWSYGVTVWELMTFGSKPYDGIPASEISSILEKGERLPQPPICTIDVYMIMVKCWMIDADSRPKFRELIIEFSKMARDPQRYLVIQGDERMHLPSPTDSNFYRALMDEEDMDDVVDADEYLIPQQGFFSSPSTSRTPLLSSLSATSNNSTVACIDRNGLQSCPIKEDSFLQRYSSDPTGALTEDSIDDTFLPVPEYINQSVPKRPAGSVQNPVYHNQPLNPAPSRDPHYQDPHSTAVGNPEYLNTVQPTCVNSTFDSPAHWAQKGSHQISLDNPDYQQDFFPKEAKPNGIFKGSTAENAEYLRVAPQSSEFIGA
Sequence of HER-2 (P04626 676-1255 limits assumed): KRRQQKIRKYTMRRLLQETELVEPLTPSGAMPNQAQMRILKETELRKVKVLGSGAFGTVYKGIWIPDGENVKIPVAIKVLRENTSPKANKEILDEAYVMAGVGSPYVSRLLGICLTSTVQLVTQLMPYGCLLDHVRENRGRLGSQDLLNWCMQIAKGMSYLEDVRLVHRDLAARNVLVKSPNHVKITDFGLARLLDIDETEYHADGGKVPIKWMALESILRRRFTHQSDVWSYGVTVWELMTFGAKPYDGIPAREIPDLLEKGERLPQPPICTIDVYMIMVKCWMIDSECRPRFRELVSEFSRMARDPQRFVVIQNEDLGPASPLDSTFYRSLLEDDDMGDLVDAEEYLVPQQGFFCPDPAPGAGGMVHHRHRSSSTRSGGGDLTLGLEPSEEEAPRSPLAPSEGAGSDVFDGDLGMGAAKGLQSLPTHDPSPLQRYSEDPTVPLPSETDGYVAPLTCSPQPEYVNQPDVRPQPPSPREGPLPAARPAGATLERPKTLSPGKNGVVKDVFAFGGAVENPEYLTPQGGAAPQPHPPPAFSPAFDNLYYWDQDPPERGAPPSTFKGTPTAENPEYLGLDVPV

| IC50 [1] [µM] | IC50 [2] [µM] | IC50 [3] [µM] | IC50 [4] [µM] | GI50 [5] [µM] | Potency reduction (fold) compared to 3d (GI50) [5] | IC50 (EGFR) | Fold less effective than erlotinib, EGFR inhibition (EGFR) | IC50 (HER-2) [µM] | Compound | viability at 4 days, 50 µM [6] [%] | viability at 4 days, 50 µM (in vitro) [%] | Bax Conc (Bax) [pg/mL] | Bax Conc (Bax; listed as staurosporine) [pg/mL] | Bcl-2 Conc (Bcl-2) [ng/mL] | Cytochrome C Conc (Cytochrome C) [ng/mL] | Caspase-9 Conc (Caspase-9) [ng/mL] |
| --- | --- | --- | --- | --- | --- | --- | --- | --- | --- | --- | --- | --- | --- | --- | --- | --- |
| 0.094 ± 0.009 | 0.092 ± 0.009 | 0.089 ± 0.008 | 0.094 ± 0.009 | 0.092 | at least 2.3 |  |  |  | Cc1ccc(S(=O)(=O)N/N=C/c2c(O)c3ccccc3n(C)c2=O)cc1 [Compound 3a, (E)-N'-((4-hydroxy-1-methyl-2-oxo-1,2-dihydroquinolin-3-yl)methylene)-4-methylbenzenesulfonohydrazide] | 90 |  |  |  |  |  |  |
| 0.058 ± 0.005 | 0.056 ± 0.005 | 0.052 ± 0.005 | 0.056 ± 0.005 | 0.056 | 1.4 |  |  |  | COc1ccc2[nH]c(=O)c(/C=N/NS(=O)(=O)c3ccc(C)cc3)c(O)c2c1 [Compound 3b, (E)-N'-((4-hydroxy-6-methoxy-2-oxo-1,2-dihydroquinolin-3-yl)methylene)-4-methyl benzenesulfonohydrazide] | 92 |  |  |  |  |  |  |
| 0.052 ± 0.004 | 0.05 ± 0.005 | 0.048 ± 0.004 | 0.053 ± 0.005 | 0.051 | 1.3 | 0.095 µM and 0.099 µM | 1.2 | 0.049 ± 0.003 | Cc1ccc(S(=O)(=O)N/N=C/c2c(O)c3cc(C)ccc3[nH]c2=O)cc1 [Compound 3c, (E)-N'-((4-hydroxy-6-methyl-2-oxo-1,2-dihydroquinolin-3-yl)methylene)-4-methylbenzenesulfonohydrazide] | 86 |  |  |  |  |  |  |
| 0.064 ± 0.006 | 0.062 ± 0.006 | 0.061 ± 0.006 | 0.064 ± 0.006 | 0.063 |  |  |  |  | CCn1c(=O)c(/C=N/NS(=O)(=O)c2ccc(C)cc2)c(O)c2ccccc21 [Compound 3e, (E)-N'-((1-Ethyl-4-hydroxy-2-oxo-1,2-dihydroquinolin-3-yl)methylene)-4-methyl benzenesulfonohydrazide] | 89 |  |  |  |  |  |  |
| 0.048 ± 0.004 | 0.046 ± 0.004 | 0.043 ± 0.004 | 0.046 ± 0.004 | 0.046 |  | 0.099 µM and 0.095 µM | 1.2 | 0.044 ± 0.003 | Cc1ccc(S(=O)(=O)N/N=C/c2c(O)c3cc(Cl)ccc3[nH]c2=O)cc1 [Compound 3f, (E)-N'-((6-chloro-4-hydroxy-2-oxo-1,2-dihydroquinolin-3-yl)methylene)-4-methyl benzenesulfonohydrazide] | 90 |  |  |  |  |  |  |
| 0.096 ± 0.009 | 0.094 ± 0.009 | 0.09 ± 0.009 | 0.094 ± 0.009 | 0.094 | at least 2.3 |  |  |  | Cc1ccc(S(=O)(=O)N/N=C/c2c(O)c3ccc(C)cc3[nH]c2=O)cc1 [Compound 3g, (E)-N'-((4-hydroxy-7-methyl-2-oxo-1,2-dihydroquinolin-3-yl)methylene)-4-methyl benzenesulfonohydrazide] | 87 |  |  |  |  |  |  |
| > 0.1 | > 0.1 | > 0.1 | > 0.1 | > 0.1 | at least 2.3 |  |  |  | Cc1ccc(S(=O)(=O)N/N=C/c2c(O)c3cccc(C)c3[nH]c2=O)cc1 [Compound 3h, (E)-N'-((4-hydroxy-8-methyl-2-oxo-1,2-dihydroquinolin-3-yl)methylene)-4-methyl benzenesulfonohydrazide] | 90 |  |  |  |  |  |  |
|  |  |  |  |  |  |  |  |  | CN[C@@H]1C[C@H]2O[C@@](C)([C@@H]1OC)n1c3ccccc3c3c4c(c5c6ccccc6n2c5c31)C(=O)NC4 [Staurosporine, reference compound] |  |  | 290 ± 2 | 290 | 1.00 | 0.50 | 20 ± 1 |

| Compound | IC50 [1] [µM] | IC50 [2] [µM] | IC50 [3] [µM] | IC50 [4] [µM] | GI50 [5] [µM] | Potency reduction (fold) compared to 3d (GI50) [5] | IC50 (EGFR) | Fold less effective than erlotinib, EGFR inhibition (EGFR) | IC50 (HER-2) [µM] | viability at 4 days, 50 µM [6] [%] | viability at 4 days, 50 µM (in vitro) [%] | Bax Conc (Bax) [pg/mL] | Bax Conc (Bax; listed as staurosporine) [pg/mL] | Bcl-2 Conc (Bcl-2) [ng/mL] | Cytochrome C Conc (Cytochrome C) [ng/mL] | Caspase-9 Conc (Caspase-9) [ng/mL] |
| --- | --- | --- | --- | --- | --- | --- | --- | --- | --- | --- | --- | --- | --- | --- | --- | --- |
| Cc1ccc2[nH]c(=O)c(/C=N/Nc3ccc([N+](=O)[O-])cc3[N+](=O)[O-])c(O)c2c1 [Compound 5b, (E)-3-((2-(2,4-Dinitrophenyl)hydrazono)methyl)-4-hydroxy-6-methyl quinolin-2(1H)-one] | 0.054 ± 0.005 | 0.052 ± 0.005 | 0.05 ± 0.005 | 0.054 ± 0.005 | 0.053 |  | 0.106 ± 0.007 µM |  | 0.056 ± 0.004 | 90 |  |  |  |  |  |  |
| COc1ccc2[nH]c(=O)c(/C=N/Nc3ccc([N+](=O)[O-])cc3[N+](=O)[O-])c(O)c2c1 [Compound 5c, (E)-3-((2-(2,4-Dinitrophenyl)hydrazono)methyl)-4-hydroxy-6-methoxy quinolin-2(1H)-one] | 0.068 ± 0.006 | 0.065 ± 0.006 | 0.062 ± 0.006 | 0.069 ± 0.006 | 0.066 |  |  |  |  |  | 89 |  |  |  |  |  |
| Cc1cccc2c(O)c(/C=N/Nc3ccc([N+](=O)[O-])cc3[N+](=O)[O-])c(=O)[nH]c12 [Compound 5d, (E)-3-((2-(2,4-Dinitrophenyl)hydrazono)methyl)-4-hydroxy-8-methyl quinolin-2(1H)-one] | 0.074 ± 0.007 | 0.071 ± 0.007 | 0.067 ± 0.006 | 0.074 ± 0.007 | 0.072 |  |  |  |  |  | 92 |  |  |  |  |  |
| Cn1c(=O)c(/C=N/Nc2ccc([N+](=O)[O-])cc2[N+](=O)[O-])c(O)c2ccccc21 [Compound 5e, (E)-3-((2-(2,4-Dinitrophenyl)hydrazono)methyl)-4-hydroxy-1-methyl quinolin-2(1H)-one] | 0.078 ± 0.007 | 0.076 ± 0.007 | 0.074 ± 0.007 | 0.076 ± 0.007 | 0.076 |  |  |  |  |  | 87 |  |  |  |  |  |
| Cc1ccc2c(O)c(/C=N/Nc3ccc([N+](=O)[O-])cc3[N+](=O)[O-])c(=O)[nH]c2c1 [Compound 5f, (E)-3-((2-(2,4-Dinitrophenyl)hydrazono)methyl)-4-hydroxy-7-methyl quinolin-2(1H)-one] | 0.086 ± 0.008 | 0.085 ± 0.008 | 0.083 ± 0.008 | 0.086 ± 0.008 | 0.085 |  |  |  |  |  | 90 |  |  |  |  |  |
| O=c1[nH]c2ccc(Cl)cc2c(O)c1/C=N/Nc1ccc([N+](=O)[O-])cc1[N+](=O)[O-] [Compound 5g, (E)-6-Chloro-3-((2-(2,4-dinitrophenyl)hydrazono)methyl)-4-hydroxy quinolin-2(1H)-one] | 0.082 ± 0.008 | 0.081 ± 0.008 | 0.078 ± 0.007 | 0.082 ± 0.008 | 0.081 |  |  |  |  |  | 91 |  |  |  |  |  |
